In the test the target is T1, Human BCL-XL protein (N-terminal HiBiT tagged BCL-XL in HT1080 cells) (Homo sapiens, UniProt Q07817).
T1 construct: expressed in transfected cells; host or cells: HT-1080 (ATCC CCL-121), stably transduced with lentivirus pLV-UBC-N-HiBiT-BCL-XL-PGK-puro and selected with puromycin
Nature of the test: HiBiT based degradation assay. The class given is cell-based. As to conditions: HT1080 cells expressing HiBiT-BCL-XL, 24 h; for Ymin (24 h): BCL-XL degradation normalized with DMSO control; for DC50: BCL-XL degradation, read-out: EC50 (24 h). Put shortly: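 This HiBiT degradation assay measured loss of BCL-XL in HT1080 cells that stably express an N-terminal HiBiT-BCL-XL fusion delivered by lentivirus. Cells were added to compound-spotted 384-well plates, and luminescence was read on a PHERAstar FSX reader. Signal was expressed relative to DMSO controls, curves were fitted by four-parameter logistic regression, and for hook-shaped curves the Ymin point served as the bottom plateau when calculating EC50.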

T1 sequence (Q07817 whole entry): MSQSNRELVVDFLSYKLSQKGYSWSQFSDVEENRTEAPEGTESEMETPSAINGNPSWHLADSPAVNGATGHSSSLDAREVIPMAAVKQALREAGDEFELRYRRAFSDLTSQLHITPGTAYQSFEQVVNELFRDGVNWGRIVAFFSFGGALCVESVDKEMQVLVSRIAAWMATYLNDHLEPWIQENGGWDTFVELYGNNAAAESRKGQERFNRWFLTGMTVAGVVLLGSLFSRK

Take `Cc1c(OCCC[C@@H]2CCN(CC(=O)Nc3ccc4c(C5CCC(=O)NC5=O)nn(C)c4c3)[C@@H](C)C2)cccc1-c1ccc(N2CCc3cccc(C(=O)Nc4nc5ccccc5s4)c3C2)nc1C(=O)O` (stereo partly drawn) [Compound 343c, 6-(8-(benzo[d]thiazol-2-ylcarbamoyl)-3,4-dihydroisoquinolin-2(1H)-yl)-3-(3-(3-((2S,4R)-1-(2-((3-(2,6-dioxopiperidin-3-yl)-1-methyl-1H-indazol-6-yl)amino)-2-oxoethyl)-2-methylpiperidin-4-yl)propoxy)-2-methylphenyl)picolinic acid]: the “Ymin (24 h)” value was “A (Ymin < 50%)” and the DC50 is < 100 nM.
The corresponding values for `Cc1c(OCCC[C@H]2CCN(CC(=O)Nc3ccc4c(C5CCC(=O)NC5=O)nn(C)c4c3)[C@@H](C)C2)cccc1-c1ccc(N2CCc3cccc(C(=O)Nc4nc5ccccc5s4)c3C2)nc1C(=O)O` (stereo partly drawn) [Compound 343d, 6-[8-(1,3-benzothiazol-2-ylcarbamoyl)-3,4-dihydro-1H-isoquinolin-2-yl]-3-[3-[3-[(2S,4S)-1-[2-[[3-(2,6-dioxo-3-piperidyl)-1-methyl-indazol-6-yl]amino]-2-oxo-ethyl]-2-methyl-4-piperidyl]propoxy]-2-methyl-phenyl]pyridine-2-carboxylic acid] are “A (Ymin < 50%)” and < 100 nM.
As to `Cc1cc(OCCC[C@H]2CCN(CC(=O)Nc3ccc4c(C5CCC(=O)NC5=O)nn(C)c4c3)[C@@H](C)C2)ccc1-c1ccc(N2CCc3cccc(C(=O)Nc4nc5ccccc5s4)c3C2)nc1C(=O)O` (stereo partly drawn) [Compound 344a, 6-[8-(1,3-benzothiazol-2-ylcarbamoyl)-3,4-dihydro-1H-isoquinolin-2-yl]-3-[4-[3-[(2S,4S)-1-[2-[[3-(2,6-dioxo-3-piperidyl)-1-methyl-indazol-6-yl]amino]-2-oxo-ethyl]-2-methyl-4-piperidyl]propoxy]-2-methyl-phenyl]pyridine-2-carboxylic acid], the “Ymin (24 h)” value is reported as “A (Ymin < 50%)” and the DC50 was < 100 nM.
For `Cc1cc(OCCC[C@@H]2CCN(CC(=O)Nc3ccc4c(C5CCC(=O)NC5=O)nn(C)c4c3)[C@H](C)C2)ccc1-c1ccc(N2CCc3cccc(C(=O)Nc4nc5ccccc5s4)c3C2)nc1C(=O)O` (stereo partly drawn) [Compound 344b, 6-[8-(1,3-benzothiazol-2-ylcarbamoyl)-3,4-dihydro-1H-isoquinolin-2-yl]-3-[4-[3-[(2R,4R)-1-[2-[[3-(2,6-dioxo-3-piperidyl)-1-methyl-indazol-6-yl]amino]-2-oxo-ethyl]-2-methyl-4-piperidyl]propoxy]-2-methyl-phenyl]pyridine-2-carboxylic acid] the same measures were “A (Ymin < 50%)” and < 100 nM.
For `Cc1cc(OCCC[C@H]2CCN(CC(=O)Nc3ccc4c(C5CCC(=O)NC5=O)nn(C)c4c3)[C@H](C)C2)ccc1-c1ccc(N2CCc3cccc(C(=O)Nc4nc5ccccc5s4)c3C2)nc1C(=O)O` (stereo partly drawn) [Compound 344c, 6-[8-(1,3-benzothiazol-2-ylcarbamoyl)-3,4-dihydro-1H-isoquinolin-2-yl]-3-[4-[3-[(2R,4S)-1-[2-[[3-(2,6-dioxo-3-piperidyl)-1-methyl-indazol-6-yl]amino]-2-oxo-ethyl]-2-methyl-4-piperidyl]propoxy]-2-methyl-phenyl]pyridine-2-carboxylic acid] the same measures were “A (Ymin < 50%)” and < 100 nM.
For `Cc1cc(OCCC[C@@H]2CCN(CC(=O)Nc3ccc4c(C5CCC(=O)NC5=O)nn(C)c4c3)[C@@H](C)C2)ccc1-c1ccc(N2CCc3cccc(C(=O)Nc4nc5ccccc5s4)c3C2)nc1C(=O)O` (stereo partly drawn) [Compound 344d, 6-(8-(benzo[d]thiazol-2-ylcarbamoyl)-3,4-dihydroisoquinolin-2(1H)-yl)-3-(4-(3-((2S,4R)-1-(2-((3-(2,6-dioxopiperidin-3-yl)-1-methyl-1H-indazol-6-yl)amino)-2-oxoethyl)-2-methylpiperidin-4-yl)propoxy)-2-methylphenyl)picolinic acid] the same measures were “A (Ymin < 50%)” and < 100 nM.
Turning to `Cc1c(O[C@H]2CC[C@H](CCCCN3CCN(c4cccc5c(C6CCC(=O)NC6=O)nn(C)c45)C[C@H]3C)CC2)cccc1-c1ccc(N2CCc3cccc(C(=O)Nc4nc5ccccc5s4)c3C2)nc1C(=O)O` (stereo partly drawn) [Compound 345a, 6-(8-(benzo[d]thiazol-2-ylcarbamoyl)-3,4-dihydroisoquinolin-2(1H)-yl)-3-(3-(((1s,4r)-4-(4-((2R)-4-(3-(2,6-dioxopiperidin-3-yl)-1-methyl-1H-indazol-7-yl)-2-methylpiperazin-1-yl)butyl)cyclohexyl)oxy)-2-methylphenyl)picolinic acid], the “Ymin (24 h)” value is reported as “A (Ymin < 50%)” and the DC50 is < 100 nM.
The corresponding values for `Cc1c(O[C@H]2CC[C@H](CCCCN3CCN(c4ccc5c(C6CCC(=O)NC6=O)nn(C)c5c4)C[C@@H]3C(F)(F)F)CC2)cccc1-c1ccc(N2CCc3cccc(C(=O)Nc4nc5ccccc5s4)c3C2)nc1C(=O)O` (stereo partly drawn) [Compound 346a, 6-(8-(benzo[d]thiazol-2-ylcarbamoyl)-3,4-dihydroisoquinolin-2(1H)-yl)-3-(3-(((1s,4r)-4-(4-((2R)-4-(3-(2,6-dioxopiperidin-3-yl)-1-methyl-1H-indazol-6-yl)-2-(trifluoromethyl)piperazin-1-yl)butyl)cyclohexyl)oxy)-2-methylphenyl)picolinic acid] are “A (Ymin < 50%)” and < 100 nM.
The corresponding values for `Cc1c(O[C@H]2CC[C@H](CCCCN3CCN(c4ccc5c(C6CCC(=O)NC6=O)nn(C)c5c4)C[C@H]3C(F)(F)F)CC2)cccc1-c1ccc(N2CCc3cccc(C(=O)Nc4nc5ccccc5s4)c3C2)nc1C(=O)O` (stereo partly drawn) [Compound 346b, 6-(8-(benzo[d]thiazol-2-ylcarbamoyl)-3,4-dihydroisoquinolin-2(1H)-yl)-3-(3-(((1r,4r)-4-(4-((2S)-4-(3-(2,6-dioxopiperidin-3-yl)-1-methyl-1H-indazol-6-yl)-2-(trifluoromethyl)piperazin-1-yl)butyl)cyclohexyl)oxy)-2-methylphenyl)picolinic acid] are “A (Ymin < 50%)” and < 100 nM.
For `Cc1c(O[C@H]2CC[C@H](CCCN3CCN(c4ccc5c(C6CCC(=O)NC6=O)nn(C)c5c4)C[C@@H]3C(F)(F)F)CC2)cccc1-c1ccc(N2CCc3cccc(C(=O)Nc4nc5ccccc5s4)c3C2)nc1C(=O)O` (stereo partly drawn) [Compound 347a, 6-(8-(benzo[d]thiazol-2-ylcarbamoyl)-3,4-dihydroisoquinolin-2(1H)-yl)-3-(3-(((1s,4r)-4-(3-((2R)-4-(3-(2,6-dioxopiperidin-3-yl)-1-methyl-1H-indazol-6-yl)-2-(trifluoromethyl)piperazin-1-yl)propyl)cyclohexyl)oxy)-2-methylphenyl)picolinic acid] the same measures were “A (Ymin < 50%)” and < 100 nM.
As for `Cc1c(O[C@H]2CC[C@H](CCCN3CCN(c4ccc5c(C6CCC(=O)NC6=O)nn(C)c5c4)C[C@H]3C(F)(F)F)CC2)cccc1-c1ccc(N2CCc3cccc(C(=O)Nc4nc5ccccc5s4)c3C2)nc1C(=O)O` (stereo partly drawn) [Compound 347b, 6-(8-(benzo[d]thiazol-2-ylcarbamoyl)-3,4-dihydroisoquinolin-2(1H)-yl)-3-(3-(((1r,4r)-4-(3-((2S)-4-(3-(2,6-dioxopiperidin-3-yl)-1-methyl-1H-indazol-6-yl)-2-(trifluoromethyl)piperazin-1-yl)propyl)cyclohexyl)oxy)-2-methylphenyl)picolinic acid], the “Ymin (24 h)” value is listed as “A (Ymin < 50%)” and the DC50 is < 100 nM.
For `Cc1c(O[C@H]2CC[C@H](CCCC(C)(C)N3CCN(c4ccc5c(C6CCC(=O)NC6=O)nn(C)c5c4)CC3)CC2)cccc1-c1ccc(N2CCc3cccc(C(=O)Nc4nc5ccccc5s4)c3C2)nc1C(=O)O` (stereo partly drawn) [Compound 350a, 6-(8-(benzo[d]thiazol-2-ylcarbamoyl)-3,4-dihydroisoquinolin-2(1H)-yl)-3-(3-(((1s,4r)-4-(4-(4-(3-(2,6-dioxopiperidin-3-yl)-1-methyl-1H-indazol-6-yl)piperazin-1-yl)-4-methylpentyl)cyclohexyl)oxy)-2-methylphenyl)picolinic acid] the same measures were “A (Ymin < 50%)” and < 100 nM.

The record behind these values is US20240238423A9, “TETRAHYDROISOQUINOLINE HETEROBIFUNCTIONAL BCL-XL DEGRADERS” (Treeline Biosciences, Inc., priority 2022, published 2024).
